{"source": "patent US4428943A", "about": "“(N-Phosphonacetyl-L-aspartato) (1,2-diaminocyclohexane)platinum(II) or alkali metal salt” (priority 1981, dated 1984)", "key": {"Solubility [1]": {"experiment": "Solubility", "format": "physicochemical", "experimental": "One ml of each of the following solvents dissolved approximately 2 mg of Pt-268: […]"}, "L1210 cells": {"system": "L1210 cells", "experiment": "Combination of Pt-268 with cisplatin in mice bearing L1210 leukemia (FIG. 4)", "format": "in vivo, BDF1 mice", "details": "5 mg/kg on Day 3, alone", "experimental": "Mice were given an inoculum of 10^6 L1210 cells.\nWith reference to FIG. 4, BDF1 mice were given an inoculum of 10^6 L1210 cells. On Day 3, one grop received NSC-314926, 5 mg/kg. […] Another group received the two drugs in combination on the same schedule."}, "[2]": {"system": "Ehrlich ascites carcinoma", "experiment": "Survival times of BDF1 mice bearing the Ehrlich ascites carcinoma", "format": "in vivo", "details": "Day 1 only; for T/C × 100: treated/control survival time", "description": "In addition to testing with L1210 leukemia, satisfactory responses against tests by additional animal cancer organisms have been shown as, for example, Ehrlich ascites tumor, melanoma B-16 and Colon 38. Testing was achieved using either the alkali metal (sodium) salt or the free acid.\nMice received an intraperitoneal inoculation of 10^7 tumor cells on Day 0; treatment was by the intraperitoneal route on Day 1 only. NSC-314926 [N-phosphonacetyl-L-aspartato(1,2-diaminocyclohexane)platinum(II)] was dissolved in 5% dextrose solution. There were 10 mice per group."}, "L1210 leukemia": {"system": "L1210 leukemia", "experiment": "Survival of mice bearing L1210 leukemia, Pt-268 alone (LD50, optimal dose, therapeutic safety ratio)", "format": "in vivo, mice (BDF1)", "experimental": "Mice received 10^6 L1210 cells on Day 0 via intraperitoneal route. Pt-268 was given intraperitoneally on Day 1 only in 5% glucose solution.\nMice received 10^6 L1210 cells on Day 0 via intraperitoneal route. Pt-268 was given intraperitoneally on Days 1, 5, and 9 in 5% glucose solution.\nThe BDF1 mice received 10^6 L1210 leukemia cells by I.P. injection on Day 0 and were divided into groups of 10, including a control group of 40 mice. The treated groups were treated on Day 1 only at different dose levels from 10 mg/kg to 200 mg/kg or treated on Days 1, 5, and 9 at dose levels from 2.5 mg/kg to 50 mg/kg."}, "Solubility [3]": {"experiment": "Solubility", "format": "physicochemical", "remark": "listed apart in the source"}}, "data": [{"substance": "N-phosphonacetyl-L-aspartato(1,2-diaminocyclohexane)platinum(II), Na [Pt-268]", "values": [{"measurement": "Solubility of a 2-mg sample", "setting": "Solubility [1]; CHCl3", "value": "very slightly soluble or insoluble"}, {"measurement": "Solubility of a 2-mg sample", "setting": "Solubility [1]; acetone", "value": "very slightly soluble or insoluble"}, {"measurement": "Solubility of a 2-mg sample", "setting": "Solubility [1]; cyclopentanone", "value": "very slightly soluble or insoluble"}, {"measurement": "Solubility of a 2-mg sample", "setting": "Solubility [1]; dimethylformamide", "value": "very slightly soluble or insoluble"}, {"measurement": "Solubility of a 2-mg sample", "setting": "Solubility [1]; dimethylsulfoxide", "value": "very slightly soluble or insoluble"}, {"measurement": "Solubility of a 2-mg sample", "setting": "Solubility [1]; ethanol", "value": "very slightly soluble or insoluble"}, {"measurement": "Solubility of a 2-mg sample", "setting": "Solubility [1]; heptane", "value": "very slightly soluble or insoluble"}, {"measurement": "Solubility of a 2-mg sample", "setting": "Solubility [1]; t-butanol", "value": "very slightly soluble or insoluble"}, {"measurement": "Solubility of a 2-mg sample", "setting": "Solubility [1]; tetrahydrofuran", "value": "very slightly soluble or insoluble"}, {"measurement": "effect on median life span, single agent", "setting": "L1210 cells", "value": "hardly effective"}, {"measurement": "Survival Time", "setting": "[2]; 5 mg/kg I.P.", "value": 16.5, "unit": "days"}, {"measurement": "T/C × 100", "setting": "[2]; 5 mg/kg I.P.", "value": 123}, {"measurement": "Survival Time", "setting": "[2]; 10 mg/kg I.P.", "value": 18.8, "unit": "days"}, {"measurement": "T/C × 100", "setting": "[2]; 10 mg/kg I.P.", "value": 140}, {"measurement": "Survival Time", "setting": "[2]; 20 mg/kg I.P.", "value": 24.3, "unit": "days"}, {"measurement": "T/C × 100", "setting": "[2]; 20 mg/kg I.P.", "value": 181}, {"measurement": "Survival Time", "setting": "[2]; 40 mg/kg I.P.", "value": 25.3, "unit": "days"}, {"measurement": "T/C × 100", "setting": "[2]; 40 mg/kg I.P.", "value": 189}, {"measurement": "Survival Time", "setting": "[2]; 60 mg/kg I.P.", "value": 28.8, "unit": "days"}, {"measurement": "T/C × 100", "setting": "[2]; 60 mg/kg I.P.", "value": 215}, {"measurement": "Survival Time", "setting": "[2]; 80 mg/kg I.P.", "value": 29.0, "unit": "days"}, {"measurement": "T/C × 100", "setting": "[2]; 80 mg/kg I.P.", "value": 216}, {"measurement": "Survival Time", "setting": "[2]; 100 mg/kg I.P.", "value": 31.7, "unit": "days"}, {"measurement": "T/C × 100", "setting": "[2]; 100 mg/kg I.P.", "value": 237}, {"measurement": "therapeutic safety ratio (LD50/OptD50)", "setting": "L1210 leukemia; I.P. LD50 / I.P. dose which is 50% of the optimal therapeutic dose", "value": 4.5}, {"measurement": "optimal therapeutic dose", "setting": "L1210 leukemia; L1210, I.P., Day 1 only, 5% glucose", "value": "approximately 80 mg/kg"}, {"measurement": "optimal dose", "setting": "L1210 leukemia; L1210, I.P., Days 1, 5, and 9, 5% glucose", "value": "approximately 20 mg/kg"}, {"measurement": "LD50", "setting": "L1210 leukemia; tumored BDF1 mice (10^6 L1210 cells I.P.)", "value": 180, "unit": "mg/kg"}, {"measurement": "Solubility in CH3OH", "setting": "Solubility [3]; CH3OH", "value": "~ 0.2 mg/ml"}, {"measurement": "Solubility in water", "setting": "Solubility [3]; water", "value": "~ 175 mg/ml"}]}]}
